Measurements: paper PMC11678221, “Design, Synthesis and Molecular Modeling of Pyrazolo[1,5-a]pyrimidine Derivatives as Dual Inhibitors of CDK2 and TRKA Kinases with Antiproliferative Activity” (Pharmaceuticals, 2024)
One block for each compound: values may come before it.

Columns and labels:
HOP-62 = test: NCI 60 cell line single-dose growth inhibition (SRB); type: cell-based, human; conditions: 10 µM; lung carcinoma HOP-62
Protocol: (§1) The developed pyrazolopyrimidines 6a–t, 11a–g, and 12 were evaluated by the National Cancer Institute (NCI) Developmental Therapeutic Program https://dtp.cancer.gov/ (accessed on 17 July 2022) for their prospective efficacy of growth-inhibitory activity verses 60 different carcinoma cell lines of NCI. Human carcinoma cell lines originated across nine distinct cancer types: central nervous system, cancer of the blood, colorectal, breast, ovary, kidney, melanoma, prostatic, and lung carcinomas. All compounds have been assessed with a concentration of 10 µM versus the collection of 60 diverse cancer cell lines. Outcomes are expressed as percentages of growth inhibition (GI %) for the evaluated compounds versus the complete set of cell lines (Supplementary Materials).
(§2) Performed by US National Cancer Institute according to previously reported standard procedure as follows: Cells were plated into 96-well microtiter plates with each well equipped with 100 µL of culture medium at densities between 5000 and 40,000 cells per well, based on the specific cell line’s doubling time. After seeding, incubation was carried out at 37 °C in 5% carbon dioxide, 95% […] environment with 100% relative humidity for one day to permit the cells to attach before proceeding to treatment with the tested compounds. To determine the cell count at drug exposure time of (Tz), two plates were per fixed cell line using trichloroacetic acid after the 24 h incubation period.
(§3) The studied compounds were initially dispersed in dimethyl sulfoxide at a concentration 400 times exceeding the intended final concentration and subsequently frozen until required. Before the application, an aliquot of the stock solution was warmed to room temperature and diluted in a complete medium containing 50 µg per mL of gentamicin to attain twice the intended concentration. Subsequently, 100 µL of the diluted compound was introduced to every well holding 100 µL of the medium to achieve the intended concentration. After the compound was added, the plates were incubated under the same conditions for a further 48 h at 37 °C.
(§4) For the adherent cells, the experiment was concluded via the introduction of 50 µL of cold 50% (w/v) trichloroacetic acid into each well, resulting in a last TCA concentration for 10%. Then, the cell plates were incubated at 4 °C for about one hour to fix the cells.
(§5) After the removal of the supernatant, the plates were washed with tap water five times before being dried using air. For the suspension cells, a similar process was followed, but 50 µL of 80% TCA was used, yielding a final TCA concentration of 16% for the cells fixed in the well’s bottom.
(§6) Following cell fixation, 100 µL of the 0.4% (wight/volume) solution of sulforhodamine B with acetic acid at a concentration of 1% was introduced to all individual wells, and then incubated at ambient temperature for 10 min. The plates were washed five times with 1% acetic acid to eliminate any residual dye, followed by air-drying. Next, […] Tris base was added to disperse the bonded dye, and, using an automatic microplate reader, the absorbance was determined at 515 nm.
(§7) The percentage of growth inhibition measurement depended on the absorbance values at the baseline time point […], as well as during the control growth phase (C) and the test growth phase (Ti). When Ti was greater than or equal to Tz, the calculation formula used [(Ti − Tz)/(C − Tz)] × 100. If Ti was less than Tz, the formula used was (Ti − Tz)/Tz × 100.

RFX 393 [1] = test: as above; type: cell-based, human; conditions: 10 µM; kidney carcinoma cell line RFX 393
Protocol: as §1, §2, §3, §4, §5, §6, §7

CDK2/CyclinA2 = target: T1, CDK2/CyclinA2 (Homo sapiens, UniProt P24941); test: CDK2 inhibition assay (BPS Bioscience kit, Kinase-Glo Max luminescence); type: biochemical; conditions: four concentrations 0.01, 0.1, 1, 10 µM, triplicate, mean ± SD, read-out: Enzyme Inhibition IC50 CDK-2
T1 construct: purchased BPS Bioscience, San Diego, CA, USA 79599

TrkA = target: T2, TrkA (Homo sapiens, UniProt P04629); test: TRKA inhibition assay (BPS Bioscience kit, Kinase-Glo Max luminescence); type: biochemical; conditions: four concentrations 0.01, 0.1, 1, 10 µM, triplicate, mean ± SD, read-out: Enzyme Inhibition IC50 TRK-A
T2 construct: purchased BPS Bioscience, San Diego, CA, USA 79548

HOP-92 = test: NCI 60 cell line single-dose growth inhibition (SRB); type: cell-based, human; conditions: 10 µM; lung carcinoma HOP-92
Protocol: as §1, §2, §3, §4, §5, §6, §7

CCRF-CEM = test: as above; type: cell-based, human; conditions: 10 µM; leukemia CCRF-CEM
Protocol: as §1, §2, §3, §4, §5, §6, §7

RPMI-8226 = test: as above; type: cell-based, human; conditions: 10 µM; leukemia RPMI-8226
Protocol: as §1, §2, §3, §4, §5, §6, §7

NCI-H460 = test: as above; type: cell-based, human; conditions: 10 µM; lung carcinoma NCI-H460
Protocol: as §1, §2, §3, §4, §5, §6, §7

56 cell lines = test: NCI 60 cell line single-dose growth inhibition, mean over the panel; type: cell-based; conditions: Homo sapiens, mean across 56 cell lines, read-out: mean growth inhibition (GI%)
Protocol: as §1, with “Materials). […]” for “Materials).”
as §6, with “The plates were washed five times with 1% acetic acid to eliminate any residual dye, followed by air-drying.” left out
The percentage of growth inhibition measurement depended on the absorbance values at the baseline time point (T0), as well as during the control growth phase (C) and the test growth phase (Ti). […]

ACHN = test: NCI 60 cell line single-dose growth inhibition (SRB); type: cell-based, human; conditions: 10 µM; renal cancer cell line ACHN
Protocol: as §1, §2, §3, §4, §5, §6, §7

RFX 393 cells [2] = test: Cell cycle investigation (PI flow cytometry); type: cell-based; conditions: GI50 concentration, 48 h; for %S: control 29.33; for %G0–G1: control 57.08
Protocol: RFX 393 cells underwent treatment with pyrazolopyrimidine derivatives 6s and 6t at their GI50 concentrations for 48 h.
RFX 393 cells underwent treatment with compounds 6s and 6t at their respective GI50 concentrations for 48 h. Following treatment, the cells were collected, dispersed in 0.5 mL of PBS, and subjected to centrifugation. They were then preserved in 70% (v/v) ethanol at 4 °C and subsequently rinsed with PBS, treated with RNase, and propidium iodide (PI) was used to stain the cells. Flow cytometric measurements were carried out employing a FACScalibur system (Becton Dickinson, Franklin Lakes, NJ, USA). The distributions of the cell cycle were subsequently calculated with the aid of software from Phoenix Flow Systems and Verity Software House (ModFit LT V6.0).

RFX 393 [3] = test: In vitro cytotoxicity on renal carcinoma cell line (MTT assay); type: cell-based; conditions: renal carcinoma cell line RFX 393, read-out: RFX393 (IC50)
RFX 393 cells [4] = test: Apoptosis and necrosis investigation (Annexin V/PI flow cytometry); type: cell-based; conditions: GI50 concentration, 48 h; for Apoptosis Late: control 0.15, % given in Figure 10 only; for Apoptosis Early: control 0.64, % given in Figure 10 only; for Necrosis: control 1.92, % given in Figure 10 only; for Apoptosis Total: control 2.71, % given in Figure 10 only
Protocol: To assess the influence of compounds 6s and 6t on cell death pathways, RFX 393 cells were subjected to the compounds for 48 h and then stained using Annexin V/PI. […] The comprehensive outcomes are provided in Table 4 and graphically illustrated in Figure 10.
RFX 393 cells underwent treatment with the GI50 concentrations of compounds 6s and 6t for 48 h. Following the treatment, the cells were collected, dispersed in 0.5 mL of PBS, and subjected to centrifugation. They were then preserved in 70% (v/v) ethanol at 4 °C and subsequently rinsed with PBS. The fixed cells were then centrifuged again, resuspended in PBS, centrifuged once more, and stained with PE Annexin V and propidium iodide (PI) according to the manufacturer’s instructions. The samples were subsequently analyzed using flow cytometry with a FACScalibur instrument (Becton Dickinson, Franklin Lakes, NJ, USA). Data on cell cycle distributions were processed with the aid of Phoenix Flow Systems and Verity Software House.

SNB-75 = test: NCI 60 cell line single-dose growth inhibition (SRB); type: cell-based, human; conditions: 10 µM; central nervous system SNB-75 carcinoma cell line
Protocol: as §1, §2, §3, §4, §5, §6, §7

Trk = conditions: known inhibitor, in Figure 2; no reference given; cited from earlier work

T2 sequence (P04629 33-796): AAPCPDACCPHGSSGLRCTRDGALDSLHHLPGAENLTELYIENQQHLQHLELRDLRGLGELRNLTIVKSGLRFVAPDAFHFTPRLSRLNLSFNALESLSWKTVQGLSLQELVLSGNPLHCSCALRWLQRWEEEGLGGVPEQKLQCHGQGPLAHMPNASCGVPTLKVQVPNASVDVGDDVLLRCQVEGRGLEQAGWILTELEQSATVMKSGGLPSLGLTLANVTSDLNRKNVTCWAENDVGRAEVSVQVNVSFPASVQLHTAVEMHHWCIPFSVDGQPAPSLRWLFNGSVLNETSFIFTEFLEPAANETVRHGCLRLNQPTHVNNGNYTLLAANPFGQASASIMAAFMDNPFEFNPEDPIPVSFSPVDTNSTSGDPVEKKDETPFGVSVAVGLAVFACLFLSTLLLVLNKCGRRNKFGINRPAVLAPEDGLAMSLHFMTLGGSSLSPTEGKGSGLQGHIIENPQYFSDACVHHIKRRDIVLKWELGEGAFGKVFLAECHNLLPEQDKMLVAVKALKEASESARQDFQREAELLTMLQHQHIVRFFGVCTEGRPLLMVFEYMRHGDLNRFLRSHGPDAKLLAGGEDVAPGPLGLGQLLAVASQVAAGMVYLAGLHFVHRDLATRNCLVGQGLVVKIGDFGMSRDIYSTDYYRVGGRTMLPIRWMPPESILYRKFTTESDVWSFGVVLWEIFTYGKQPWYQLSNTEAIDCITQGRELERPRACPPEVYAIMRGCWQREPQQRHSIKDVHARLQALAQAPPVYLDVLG

IC50 (CDK2/CyclinA2): 550 ± 40 nM | IC50 (TrkA): 570 ± 20 nM
Compound: COc1ccc(-c2ccnc3c(C#N)c(Nc4ccccc4)nn23)cc1OC [6d, 7-(3,4-Dimethoxyphenyl)-2-(anilinyl)pyrazolo[1,5-a]pyrimidine-3-carbonitrile]
GI % (HOP-62): 100.07% | GI % (RFX 393 [1]): 84.17%

Compound: N#Cc1c(Nc2ccccc2)nn2c(-c3ccco3)ccnc12 [6i, 7-(Furan-2-yl)-2-(anilinyl)pyrazolo[1,5-a]pyrimidine-3-carbonitrile]
GI % (HOP-92): 68.96%

IC50 (CDK2/CyclinA2): 1580 ± 130 nM | IC50 (TrkA): 1170 ± 90 nM
Compound: CCOC(=O)c1c(Nc2ccccc2)nn2c(-c3ccccc3)ccnc12 [6k, Ethyl 7-Phenyl-2-(anilinyl)pyrazolo[1,5-a]pyrimidine-3-carboxylate]
GI % (CCRF-CEM): 90.41% | GI % (RPMI-8226): 69.31%

IC50 (CDK2/CyclinA2): 1060 ± 90 nM | IC50 (TrkA): 960 ± 40 nM
Compound: CCOC(=O)c1c(Nc2ccccc2)nn2c(-c3ccc(OC)cc3)ccnc12 [6m, Ethyl 7-(4-Methoxyphenyl)-2-(anilinyl)pyrazolo[1,5-a]pyrimidine-3-carboxylate]
GI % (RFX 393 [1]): 102.68%

IC50 (CDK2/CyclinA2): 780 ± 40 nM | IC50 (TrkA): 980 ± 40 nM
Compound: CCOC(=O)c1c(Nc2ccccc2)nn2c(-c3ccc(OC)c(OC)c3)ccnc12 [6n, Ethyl 7-(3,4-Dimethoxyphenyl)-2-(anilinyl)pyrazolo[1,5-a]pyrimidine-3-carboxylate]
GI % (HOP-92): 94.73% | GI % (NCI-H460): 52.11% | inhibition at 10 µM (56 cell lines): 43.9%

IC50 (CDK2/CyclinA2): 760 ± 40 nM | IC50 (TrkA): 1590 ± 110 nM
Compound: CCOC(=O)c1c(Nc2ccccc2)nn2c(-c3ccc(Cl)cc3)ccnc12 [6o, Ethyl 7-(4-Chlorophenyl)-2-(anilinyl)pyrazolo[1,5-a]pyrimidine-3-carboxylate]
GI % (CCRF-CEM): 83.85% | GI % (RFX 393 [1]): 110.55%

IC50 (CDK2/CyclinA2): 660 ± 40 nM | IC50 (TrkA): 1340 ± 80 nM
Compound: CCOC(=O)c1c(Nc2ccccc2)nn2c(-c3ccc(Br)cc3)ccnc12 [6p, Ethyl 7-(4-Bromophenyl)-2-(anilinyl)pyrazolo[1,5-a]pyrimidine-3-carboxylate]
GI % (HOP-92): 71.8% | GI % (ACHN): 66.02% | GI % (RFX 393 [1]): 112.34% | GI % (NCI-H460): 66.12%

Compound: CCOC(=O)c1c(Nc2ccccc2)nn2c(-c3ccc([N+](=O)[O-])cc3)ccnc12 [6q, Ethyl 7-(4-Nitrophenyl)-2-(anilinyl)pyrazolo[1,5-a]pyrimidine-3-carboxylate]
GI % (RFX 393 [1]): 52.08%

IC50 (CDK2/CyclinA2): 200 ± 20 nM | IC50 (TrkA): 970 ± 40 nM
Compound: CCOC(=O)c1c(Nc2ccccc2)nn2c(-c3ccc4ccccc4c3)ccnc12 [6r, Ethyl 7-(Naphthalen-2-yl)-2-(anilinyl)pyrazolo[1,5-a]pyrimidine-3-carboxylate]
GI % (RFX 393 [1]): 81.71%

Compound: CCOC(=O)c1c(Nc2ccccc2)nn2c(-c3ccco3)ccnc12 [6s, Ethyl 7-(Furan-2-yl)-2-(anilinyl)pyrazolo[1,5-a]pyrimidine-3-carboxylate]
%S (RFX 393 cells [2]): 11.49% | %G0–G1 (RFX 393 cells [2]): 84.36% | IC50 (RFX 393 [3]): 11.7 ± 0.4 µM | Apoptosis Late (RFX 393 cells [4]): 7.74% | Apoptosis Early (RFX 393 cells [4]): 20.29% | Necrosis (RFX 393 cells [4]): 4.04% | Apoptosis Total (RFX 393 cells [4]): 32.07%

IC50 (CDK2/CyclinA2): 90 ± 10 nM
Compound: CCOC(=O)c1c(Nc2ccccc2)nn2c(-c3cccs3)ccnc12 [6t, Ethyl 2-(Anilinyl)-7-(thiophen-2-yl)pyrazolo[1,5-a]pyrimidine-3-carboxylate]
GI % (RFX 393 [1]): 106.08% | %S (RFX 393 cells [2]): 15.26% | %G0–G1 (RFX 393 cells [2]): 78.01% | IC50 (RFX 393 [3]): 19.9 ± 0.67 µM | Apoptosis Late (RFX 393 cells [4]): 9.49% | Apoptosis Early (RFX 393 cells [4]): 11.15% | Necrosis (RFX 393 cells [4]): 3.58% | Apoptosis Total (RFX 393 cells [4]): 24.22%

IC50 (CDK2/CyclinA2): 220 ± 20 nM | IC50 (TrkA): 890 ± 30 nM
Compound: CCOC(=O)c1c(Nc2ccccc2)nn2c(-c3ccco3)c(C#N)cnc12 [11g, Ethyl 6-Cyano-7-(furan-2-yl)-2-(anilinyl)pyrazolo[1,5-a]pyrimidine-3-carboxylate]
GI % (SNB-75): 69.53%

Compound: O=C(Nc1cnn2ccc(N3CCC[C@@H]3c3cc(F)ccc3F)nc12)N1CC[C@H](O)C1 [Larotrectinib]
IC50 (Trk): 2 nM

Compound: CN[C@@H]1C[C@H]2O[C@@](C)([C@@H]1OC)n1c3ccccc3c3c4c(c5c6ccccc6n2c5c31)C(=O)NC4 [Staurosporine, reference compound]
IC50 (RFX 393 [3]): 0.07 µM
